Measured values from patent US7008627B1, “Use of complexes for the preparation of compositions for the treatment of sensitive skin, preparation process and hypoallergenic compositions” (Johnson & Johnson Consumer France, priority 1996, dated 2006).
Where “and” joins values, the source holds several entries; their conditions need not be identical. Equal entries are not always repeated.

What was measured:
[1] = system: nitro derivatives (NO2^−); assay: Production of nitro derivatives by macrophages after stimulation by IL-4 and IgE-containing immune complexes; format: cell-based, human; settings: for Production of nitro derivatives (NO2^−): macrophages stimulated by IgE-containing immune complexes (IL-4), Expt-1 to Expt-4
Protocol: (§1) To evaluate the allergic inflammation, the cells are activated by IL-4, which induces the CD23 receptor, and then by IgE-containing immune complexes. In all cases, the cellular supernatants are analysed after the activation.
(§2) The following products were used during this study: Escherichia coli LPS (Sigma), used at 1 μg/ml. IFN-γ and IL-4 are sourced from Immugenex (Los Angeles Calif.) and are used respectively at 1000 U/ml and 10 ng/ml, the monoclonal IgEs are sourced from Stallergene (Fresnes, France) and the anti-IgEs are from Nordic (Tilburg, Holland).
(§3) The macrophage cells are obtained from the peripheral blood of normal donors (non-allergic). The mononuclear cells are isolated on a ficoll gradient and the ring of lymphoid cells is recovered and washed three times and the cells are then cultured so as to cause the macrophage cells to adhere. These cells are recovered after adhering for 1 hour and are cultured (10^6 cells/ml/well). If appropriate, in the case of stimulation by IL-4, the presence of the IgE receptor (CD23) at the surface of the cells is verified by immunolabelling.
(§4) The cells are activated by the combination of IFN-γ and LPS for 3 to 4 days and the supernatants of these cultures are then recovered in order to quantitatively determine the nitrogeneous derivatives and TNF-α. Likewise, during stimulation by IgE, the cells are first activated by IL-4, so as to induce the CD23, and are then subsequently cultured and stimulated by the IgE-containing immune complexes for 3 to 5 days before recovering the different supernatants. In all the cases, cellular viability is achieved on conclusion of these cultures. In the specific case of macrophages, a long-term (7 to 12 days) viability study was carried out, so as to determine the protective effects of these products. Quantitative determination of the nitrogenous derivatives is carried out using the Griess approach and the TNF level is measured by using quantitative determination kits from Medgënix (Fleurus, Belgium).
On completion of this culturing period, 30 to 80% of the keratinocytes and of the macrophages express CD23. The individual variations are in no case the reflection of a different allergic situation between these individuals.
After the CD23 has been taken up by IgE-containing immune complexes, the production of a large number of mediators and cytokines (in particular TNF) and of products resulting from the oxidative metabolism, such as nitrogenous derivatives, is induced. This stimulation redefines in vitro an allergic-type inflammatory reaction.
(§5) On completion of this culturing period, 30 to 80% of the keratinocytes and of the macrophages express CD23. The individual variations are in no case the reflection of a different allergic situation between these individuals. […]

keratinocytes = assay: Dose effect of K18 on the inflammatory functions of the keratinocytes (FIG. 1); format: cell-based, human
Protocol: FIG. 1: Dose effect of carboxymethyl-β-glucan with respect to the inflammatory functions of the keratinocytes.
Consequently, the effects of the product K18 were evaluated as a function of the dose. The results are illustrated in FIG. 1.

[2] = system: nitro derivatives (NO2^−); assay: Production of nitro derivatives by keratinocytes after stimulation by IL-4 and IgE-containing immune complexes; format: cell-based, human
Protocol: as §1, §2
(§6) The confluent keratinocyte cultures are trypsinized and transferred into 24-well plates in fresh medium at the cellular density of 10^5 cells/ml/well. If appropriate, in the case of stimulation by IL-4, the presence of the IgE receptor (CD23) at the surface of the cells is verified by immunolabeling.
(§7) The cells are activated by the combination of IFN-γ and LPS for 3 to 4 days and the supernatants of these cultures are then recovered in order to quantitatively determine the nitrogeneous derivatives and TNF-α. […] Quantitative determination of the nitrogenous derivatives is carried out using the Griess approach and the TNF level is measured by using quantitative determination kits from Medgënix (Fleurus, Belgium). […]

[3] = system: keratinocytes and macrophages; assay: Overall anti-inflammatory activity (non-specific and allergic) on stimulated keratinocytes and macrophages; format: cell-based, human; settings: conclusion from the IFN-γ + LPS (non-specific) and IL-4/IgE (allergic) models
Source text: (§8) The activities of the test products are therefore investigated with respect to human macrophage and keratinocyte cultures which are or are not stimulated by intereferon-γ+lipopolysaccharide (non-specific inflammation or by IL-4 (allergic inflammation). This type of stimulation places the cells in the context of a pro-oxidizing response (generation of NO or superoxide anion free radicals, which can be evaluated by measuring the production of nitrogeneous derivatives) and an immuno-inflammatory response (production of cytokines such as TNF-α).
as §1
The cells are activated by the combination of IFN-γ and LPS for 3 to 4 days and the supernatants of these cultures are then recovered in order to quantitatively determine the nitrogeneous derivatives and TNF-α. […] Quantitative determination of the nitrogenous derivatives is carried out using the Griess approach and the TNF level is measured by using quantitative determination kits from Medgënix (Fleurus, Belgium).

TNF [4] = assay: Production of TNF by macrophages after stimulation by IFN-γ + LPS; format: cell-based, human; settings: for effect on the production of TNF: macrophages stimulated by IFN-γ and LPS
Source text: as §8, §2, §3
as §4, with “In all the cases, cellular viability is achieved on conclusion of these cultures. In the specific case of macrophages, a long-term (7 to 12 days) viability study was carried out, so as to determine the protective effects of these products.” left out, “Belgium). […]” for “Belgium).”

TNF [5] = assay: Production of TNF by macrophages after stimulation by IL-4 and IgE-containing immune complexes; format: cell-based, human
Protocol: as §1, §2
The macrophage cells are obtained from the peripheral blood of normal donors (non-allergic). The mononuclear cells are isolated on a ficoll gradient and the ring of lymphoid cells is recovered and washed three times and the cells are then cultured so as to cause the macrophage cells to adhere. These cells are recovered after adhering for 1 hour and are cultured (10^6 cells/ml/well). […]
as §7

TNF [6] = assay: Production of TNF by keratinocytes after stimulation by IFN-γ + LPS; format: cell-based, human; settings: for Production of TNF: keratinocytes stimulated by IFN-γ + LPS, Expt-1 to Expt-4; for effect on the production of TNF: keratinocytes stimulated by IFN-γ and LPS
Source text: as §8, §2, §6, §4
(§9) In this study, the product H37 (10 mg/ml) is added 30 min before stimulation by IFN-γ+LPS.
(§10) In this study, the products (10 mg/ml or 1/100 v/v) are added 30 min before stimulation by IFN-γ+LPS. In none of the cases have these products shown a cytotoxic activity.

[7] = system: nitro derivatives (NO2^−); assay: Production of nitro derivatives by keratinocytes after stimulation by IFN-γ + LPS; format: cell-based, human; settings: for Production of nitro derivatives (NO2^−), value between brackets / Production of nitro derivatives (NO2^−): Table 5A, + 10 mg/ml of the product; for Production of nitro derivatives (NO2^−), value between brackets: keratinocytes not stimulated by IFN-γ + LPS; for Production of nitro derivatives (NO2^−): keratinocytes stimulated by IFN-γ + LPS, Expt-1 to Expt-4; for effect on the production of nitro derivatives / NO: keratinocytes stimulated by IFN-γ and LPS
Source text: as §8, §2, §6, §4, §9, §10

TNF [8] = assay: Production of TNF by keratinocytes after stimulation by IL-4 and IgE-containing immune complexes; format: cell-based, human
Protocol: as §1, §2, §6, §4, §5

[9] = system: nitro derivatives (NO2^−); assay: Production of nitro derivatives by macrophages after stimulation by IFN-γ + LPS; format: cell-based, human; settings: for Production of nitro derivatives (NO2^−), value between brackets: Table 5A, macrophages not stimulated by IFN-γ + LPS, + 10 mg/ml of the product; for effect on the production of nitro derivatives: macrophages stimulated by IFN-γ and LPS
Source text: as §8, §2, §3, §4, §9, §10

NO = assay: Summary table: anti-free radicals activity, NO; format: cell-based, human; settings: result in words
Source text: (§11) It is possible in particular to operate on keratinocytes and macrophage cells because these are cells which are essential for the development of a local inflammatory reaction. Moreover, macrophages are particularly advantageous cells because, due to the fact that these are resident cells in the skin, they regulate not only local inflammatory reactions but they also regulate the immune responses by their ability to present the antigen and to produce a great number of cytokines which regulate local immunity. These macrophages are also involved in communications with the circulatory system which can, if appropriate, mobilize different cell types (monocytes, neutrophils, eosinophils and T lymphocytes), thus increasing the non-specific and specific defensive power of the tissue under consideration.
as §8

PGE2 = assay: Summary table: anti-inflammatory activity, PGE2; format: cell-based; settings: result in words
Source text: as §11, §8

glutathione peroxidase = assay: Summary table: anti-free radicals activity, glutathione peroxidase; settings: result in words
Source text: (§12) Enzymes which are active in endogenous defence systems against free radicals are, for example, SOD (or superoxide -disumtase), catalase or glutathione peroxidase; attempts will be made to stimulate the production of these enzymes or they can be introduced exogeneously.

TNF-α = assay: Summary table: anti-inflammatory activity, TNF-α; format: cell-based, human; settings: result in words
Source text: as §11, §8

LTB4 = assay: Summary table: anti-inflammatory activity, LTB4; format: cell-based; settings: result in words
Source text: as §11, §8

[10] = system: peroxidation of the lipids; assay: Summary table: anti-free radicals activity, peroxidation of the lipids; settings: result in words
catalase = assay: Summary table: anti-free radicals activity, catalase; settings: result in words
Source text: as §12

[11] = system: mixed lympho-epidermal cultures (MLEC); assay: Summary table: anti-allergic activity, mixed lympho-epidermal cultures (MLEC), lymphocyte proliferation; format: cell-based; settings: result in words
Source text: The activity of the components is also confirmed on mixed lympho-epidermal cultures (MLEC).
In the skin, Langherans cells indeed play an essential role in the […] of the antigen and keratinocytes generate factors which are involved in the immune response, thus constituting a cutaneous immune system. MLECs make it possible to determine the immuno-modulatory properties of substance by measuring the lymphocyte proliferation induced by the antigen-presenting allogenic epidermal cells, with or without treatment by the substance.

IL-1α = assay: Summary table: anti-inflammatory activity, IL-1α; format: cell-based; settings: result in words
Source text: as §11, §8

[12] = Table 6A, + 10 mg/ml of the product
[13] = keratinocytes stimulated by IL-4
[14] = Table 5B, + 10 mg/ml of the product

Carboxymethyl-β-glucan [K18]
Production of nitro derivatives (NO2^−), value between brackets ([1]; Table 6A, macrophages not stimulated by IgE-containing immune complexes, + 10 mg/ml of the product): 2 µM and 4 µM | Production of nitro derivatives (NO2^−) [1, 12]: 7 µM and 6 µM and 10 µM | effect on the production of nitro derivatives ([1]; macrophages stimulated by IL-4): inhibitory activity | generation of TNF as a function of the dose (keratinocytes): inhibits, in a dose-dependent way | generation of nitro derivatives as a function of the dose (keratinocytes): inhibits, in a dose-dependent way | Production of nitro derivatives (NO2^−), value between brackets ([2]; Table 6A, keratinocytes not stimulated by IgE-containing immune complexes, + 10 mg/ml of the product): 2 µM and 4 µM | effect on the production of nitro derivatives [2, 13]: inhibitory activity | anti-inflammatory activity [3]: non-specific and allergic-type anti-inflammatory activity | effect on the production of TNF (TNF [4]): efficiently inhibit | effect on the production of TNF (TNF [5]; macrophages stimulated by IL-4): inhibitory activity | Production of TNF (TNF [6]; [14]): 130 pg/mL and 95 pg/mL and 85 pg/mL and 82 pg/mL | effect on the production of TNF (TNF [6]): efficiently inhibit | Production of nitro derivatives (NO2^−), value between brackets [7]: 1 µM | Production of nitro derivatives (NO2^−) [7]: 13 µM and 14 µM and 11 µM and 7 µM | effect on the production of nitro derivatives / NO [7]: high ability to inhibit | effect on the production of TNF (TNF [8]; [13]): inhibitory activity | Production of nitro derivatives (NO2^−), value between brackets [9]: 1 µM and 2 µM | effect on the production of nitro derivatives [9]: high ability to inhibit

poly-β(1→3)-glucopyranose [K17]
Production of nitro derivatives (NO2^−) [1, 12]: 16 µM and 17 µM and 19 µM and 30 µM | anti-inflammatory activity [3]: only has a non-specific anti-inflammatory activity | Production of TNF (TNF [4]; Table 5B, macrophages stimulated by IFN-γ + LPS, + 10 mg/ml of the product, Expt-1 to Expt-4): 605 pg/mL and 902 pg/mL and 970 pg/mL and 695 pg/mL | effect on the production of TNF (TNF [4]): efficiently inhibit | Production of TNF, value between brackets (TNF [5]; Table 6B, macrophages not stimulated by IgE-containing immune complexes, + product): 45 pg/mL and 41 pg/mL and 32 pg/mL | Production of TNF, value between brackets (TNF [6]; Table 5B, keratinocytes not stimulated by IFN-γ + LPS, + 10 mg/ml of the product, ND = non-detectable): 95 pg/mL | Production of TNF (TNF [6]; [14]): 125 pg/mL and 98 pg/mL and 100 pg/mL and 70 pg/mL | effect on the production of TNF (TNF [6]): efficiently inhibit | Production of nitro derivatives (NO2^−), value between brackets [7]: 2 µM and 1 µM | Production of nitro derivatives (NO2^−) [7]: 15 µM and 16 µM and 8 µM | effect on the production of nitro derivatives / NO [7]: high ability to inhibit | Production of TNF, value between brackets (TNF [8]; Table 6B, keratinocytes not stimulated by IgE-containing immune complexes, + product): 35 pg/mL and 31 pg/mL and 32 pg/mL and 40 pg/mL | Production of TNF (TNF [8]; Table 6B, keratinocytes stimulated by IL-4 / IgE-containing immune complexes, + product, Expt-1 to Expt-4): 185 pg/mL and 111 pg/mL and 120 pg/mL and 132 pg/mL | Production of nitro derivatives (NO2^−), value between brackets [9]: 2 μM and 1 μM and 1.5 μM and 2 (2) μM | effect on the production of nitro derivatives [9]: high ability to inhibit

β-Glucan
Anti-free radicals: NO (NO): inhibition | Anti-inflammatory: PGE2 (PGE2): inhibition | Anti-free radicals: glutathione peroxidase (glutathione peroxidase): stimulation | Anti-inflammatory: TNF-α (TNF-α): inhibition | Anti-inflammatory: LTB4 (LTB4): no effect | Anti-free radicals: peroxidation of the lipids [10]: no effect | Anti-free radicals: catalase (catalase): stimulation | Anti-allergic: MLEC [11]: no effect | Anti-inflammatory: IL-1α (IL-1α): inhibition
